Reference: patent US20050034189A1, “Chitin oligosaccharide elicitor- and gibberellin-responsive genes in plants, and uses thereof” (National Institute of Agrobiological Sciences, priority 2001, published 2005)
Where two headings read alike, the source gives them in different places.

What was measured:
[1] = system: CIGR1 gene and CIGR2 gene; assay: Gibberellin responsiveness of CIGR1 and CIGR2 genes in suspension-cultured rice cells, Northern blot hybridization; format: cell-based, rice (Oryza sativa cv. Nipponbare); details: for induction of CIGR1 and CIGR2 gene expression by gibberellin species: ten-minute treatment of cultured rice cells
Procedure: (§1) (1) Cultured rice cells: The cultured cells of rice were induced from germinating rice seeds (Oryza sativa cv. Nipponbare) on a N6 agar plate containing 1 ppm 2,4-D (auxin; 2,4-dichlorophenoxyacetic acid). The cells were successively cultured in liquid N6 medium as follows. Once a week, cells of about 1 ml in volume were transferred to 150 ml N6 medium. Every two weeks, sizes of the clusters of cells were reduced by passing through a 20-mesh metallic mesh. Unfiltered cells that were cultured while shaking for four to six days after transferring to a 30-ml medium, were used for Northern blotting's RNA extraction.
(§2) (2) RNA extraction: The extraction of total RNA from cultured cells and green leaves of rice was carried out following the phenol-SDS method. A Polytron homogenizer was used to homogenize tissue in the presence of phenol (about 90% saturated with water) of about tenfold or more volume to the tissue volume, and the same volume of extraction buffer solution (50 mM Tris-HCl pH 9.0, 1% SDS, 50 mM NaCl). The aqueous phase obtained by centrifugation was repeatedly extracted with phenol. The total nucleic acid was precipitated by adding 0.6 volume of isopropanol to the extract and then stirring the mixture. After dissolving the precipitate in water, 0.25 volume of 10 M LiCl was added, and the mixture was cooled on ice. High molecular weight RNA was collected by centrifugation, washed with 70% ethanol, and then dissolved in a small volume of water to be used as an RNA sample.
(3) A method for gibberellin treatment of cultured cells and green leaves: The cultured cells were pre-washed with 2,4-D-free N6 medium several times, and then suspended in the same medium and shaken for two hours at 25° C. Gibberellin (GA3 dissolved in ethanol) was added to make the respective final concentrations and the cells were cultured while shaking for a predetermined time and used for RNA extraction. Nipponbare plants, grown three weeks after seeding, were sprayed with gibberellin. The third and fourth leaves were collected at certain intervals and total RNA was extracted. Elicitor treatment was carried out by directly adding aqueous elicitor solutions to cultured cells of rice.
(4) Hybridization: RNA for the Northern hybridization was denatured by the glyoxal method. 2.7 μl of glyoxal (final concentration, 1 M), 1.6 μl of sodium phosphate (pH 7.0, final concentration, 10 mM), and 8 μl of dimethylsulfoxide (final concentration, 50%) were added to 10 μg of total RNA (3.7 μl). The mixture was kept at 50° C. for one hour and then subjected to electrophoresis in 1.4% agarose (10 mM sodium phosphate, pH 7.0). After electrophoresis, RNA was blotted onto a nylon membrane (Biodyne A) and RNA was fixed onto the membrane by treatment at 80° C. for two hours. Hybridization was carried out in a mixture of 50% formamide, 0.1% SDS, 0.1 mg/ml salmon sperm DNA, 5×SSPE (0.9 M NaCl, 50 mM sodium phosphate, 5 mM EDTA, pH 7.4), and 5× Denhardt's solution (0.1% bovine serum albumin, 0.1% Ficoll, 0.1% polyvinylpyrrolidone) at 42° C. for one day. The membrane was then washed with 0.1×SSC (15 mM NaCl, 1.5 mM sodium citrate) three times for five minutes each at room temperature and twice for 30 minutes each at 65° C. and then exposed on X-ray film.
Therefore, the present inventors examined the gibberellin responsiveness of CIGR1 and CIGR2 genes. Suspension-cultured cells were treated with GA3, which is one of the active-type gibberellins, and changes in the expression of these two genes were analyzed over time. […] To maintain cell division activity, the medium used for culturing plant cells contained 2,4-D, which is one of auxins that are not easily metabolized by plants. It was thought that 2,4-D might suppress the action of gibberellin. Therefore, the cells were pre-washed with 2,4-D-free medium, and after two hours of pre-culture in the same medium, the cells were treated with GA3. […]

[2] = system: nine plant bioassays; details: cited from earlier work
[3] = system: PR1, PR10 and OsDRF1 genes; assay: Induction of PR1, PR10 and OsDRF1 genes after DEX treatment of transformed rice, oligoarray and Northern; format: in vivo, rice (Nipponbare); details: transformed line #7; DEX 30 μM spray
Procedure: FIG. 12 depicts photographs representing the occurrence of expression induction of PR1, PR10 and OsDRF1 genes on induction of CIGR2 gene expression by DEX using a DEX-inducing type promoter. Transformed rice plants #7 and #9 were spray-treated with DEX or ethanol (EtOH; 0.1% v/v). The amounts of mRNA for each gene were measured using northern blot hybridization after zero, 24, 48 and 72 hours.
Using Agrobacterium methods, the plasmid was introduced into rice (Nipponbare). The derived transformed rice was inbred, and second generation seeds were obtained. Each independent line was spray-treated with dexamethasone (DEX; 30 μM, ethanol solution). Over a time course, total RNAs were extracted by phenol methods from the above ground part of the plant. Northern hybridization was carried out using the cDNA of ^32P-labeled CIGR2 as a probe. […] This line was analyzed using a 60mer oligoarray (Agilent) constructed from a total-length rice cDNA library. As a result, induction of three genes (PR1(AK107926), PR10, and OsDRF1 (Defense Response Gene Family 1; AK100816)) was discovered 48-72 hours after dexamethasone treatment. PR1 and PR10 are known to be involved in disease resistance. […]

[4] = system: CIGR1 gene and CIGR2 gene; assay: Expression of CIGR1 and CIGR2 genes in green leaves of rice after GA3 spraying; format: in vivo, rice (Nipponbare); details: GA3 50 μM sprayed; third and fourth leaves, three weeks after seeding
Procedure: FIG. 10 depicts photographs representing the expression of CIGR1 gene and CIGR2 gene in green leaves of rice after GA3 treatment. After spraying rice plants with GA3, the third and fourth leaves were sampled at certain intervals. Total RNA extracted from the third and fourth leaves was analyzed by the Northern blot hybridization method.
as §2, with “sample. […]” for “sample.”
Cultured plant cells are thought to be in an undifferentiated state in the presence of auxins. […] Thus, the responses of these two genes to gibberellin were analyzed in green leaves of rice. […]

[5] = system: CHRC; details: cited from earlier work
[6] = system: CIGR1 gene and CIGR2 gene; assay: Effect of inhibitors on induction of CIGR1 and CIGR2 genes by GA3 in cultured rice cells; format: cell-based; details: inhibitor added ten minutes before; okadaic acid 1 μM, lavendustin A 30 μM, K-252a 20 μM
Procedure: (§3) FIG. 11 depicts photographs representing the effects of protein kinase inhibitors on elicitor response and gibberellin response. The following compounds were added ten minutes before the treatment with chitin heptamer (GN7) or gibberellin (GA3). (A): the positive control of the elicitor response; (B): okadaic acid (1 μM); (C), lavendustin A (30 μM); (D), K-252a (20 μM).
(§4) In addition, the effects of various inhibitors on the inductions by gibberellin and elicitors of CIGR1 gene and CIGR2 gene in the cultured rice cells were examined. Referring to the results of Kuo et al., cells pretreated with okadaic acid were tested. […] From these observations, protein phosphatase was presumed to be involved in signal transduction from gibberellin to CIGR1 gene and CIGR2 gene in cultured rice cells. Following these experiments, the effects of protein kinase inhibitors were studied.

[7] = system: CIGR1 gene and CIGR2 gene; assay: Effect of inhibitors on induction of CIGR1 and CIGR2 genes by chitin heptamer in cultured rice cells; format: cell-based; details: inhibitor added ten minutes before; okadaic acid 1 μM, lavendustin A 30 μM, K-252a 20 μM
Procedure: as §3, §4

[8] = system: elicitor-responsive genes; details: pretreatment with K-252a; suspension-cultured rice cells; cited from earlier work
[9] = system: α-amylase; details: aleurone layer of wheat, cited from earlier work
[10] = system: CIGR1 gene and CIGR2 gene; assay: Elicitor responsiveness of CIGR1 and CIGR2 genes in cultured rice cells, Northern blot hybridization; format: cell-based, rice (Oryza sativa cv. Nipponbare)
Procedure: as §1, §2
(3) A method for gibberellin treatment of cultured cells and green leaves: The cultured cells were pre-washed with 2,4-D-free N6 medium several times, and then suspended in the same medium and shaken for two hours at 25° C. […]
Both CIGR1 gene and CIGR2 gene were identified as elicitor responsive genes using DNA microarray analysis. The elicitor responsiveness of these two genes was analyzed using Northern blot hybridization method. […]

[11] = system: rice; details: reported; cited from earlier work
[12] = ten-minute GA3 treatment, 2,4-D-free medium

SMILES | induction of CIGR1 and CIGR2 gene expression by gibberellin species [1] | physiological activity type of gibberellin [2] | inhibition of induction of both genes by GA3 [6] | inhibition of induction of both genes by chitin heptamer [7] | other results
C=C1C[C@]23C[C@@]1(O)CC[C@H]2[C@]1(C(=O)O)CCC[C@@](C)(C(=O)O)[C@H]1[C@@H]3C(=O)O [GA17] | only active type gibberellins induced the expression | inactive type | – | – | –
C[C@@H]1C[C@H]2[C@@H]3CCC4=CC(=O)C=C[C@]4(C)[C@@]3(F)[C@@H](O)C[C@]2(C)[C@@]1(O)C(=O)CO [dexamethasone] | – | – | – | – | time after dexamethasone treatment at which induction of PR1, PR10 and OsDRF1 was discovered [3]: 48 to 72 h
C=C1C[C@]23C[C@@]1(O)CC[C@H]2[C@@]12C=C[C@H](O)[C@@](C)(C(=O)O1)[C@H]2[C@@H]3C(=O)O [GA3] | induced the expression of both genes | active type | – | – | expression after GA3 treatment ([1]; cells pre-washed and pre-cultured two hours in 2,4-D-free medium): Transient expression with a maximum at ten minutes after treatment; change in the amount of expression after GA3 treatment ([1]; medium containing 2,4-D, up to three hours after treatment, both genes): no significant change; GA3 concentration at which induction of expression of both genes began to appear [1, 12]: 10^−6 M; GA3 concentration at which induction reached near saturation [1, 12]: ~10^−4 M; expression of both genes in green leaves after GA3 spraying [4]: very rapid transient expression with a maximum at 30 minutes after spraying; GA3 concentration required for induction of CHRC by gibberellin ([5]; chromoplasts of cucumber petals): at least 10^−7 M; GA3 concentration up to which CHRC expression level increased approximately linearly ([5]; cucumber petals): up to 10^−4 M
C=C1C[C@]23C[C@@]1(O)CC[C@H]2[C@@]12CC[C@H](O)[C@@](C)(C(=O)O1)[C@H]2[C@@H]3C(=O)O [GA1] | induced the expression of both genes | active type | – | – | –
COC(=O)[C@@]1(O)C[C@H]2O[C@]1(C)n1c3ccccc3c3c4c(c5c6ccccc6n2c5c31)C(=O)NC4 [K-252-A] | – | – | almost completely | almost completely | inhibition of induction of expression of elicitor-responsive genes [8]: strongly inhibited; inhibition of gibberellin induction of α-amylase ([9]; listed as K252a): hardly inhibited
CC(=O)N[C@H]1[C@H](O[C@@H]([C@H](O)[C@H](C=O)NC(C)=O)[C@H](O)CO)O[C@H](CO)[C@@H](O[C@@H]2O[C@H](CO)[C@@H](O[C@@H]3O[C@H](CO)[C@@H](O[C@@H]4O[C@H](CO)[C@@H](O[C@@H]5O[C@H](CO)[C@@H](O[C@@H]6O[C@H](CO)[C@@H](O)[C@H](O)[C@H]6NC(C)=O)[C@H](O)[C@H]5NC(C)=O)[C@H](O)[C@H]4NC(C)=O)[C@H](O)[C@H]3NC(C)=O)[C@H](O)[C@H]2NC(C)=O)[C@@H]1O [chitin heptamer, N-acetylchitoheptaose] | – | – | – | – | response (induction of expression) of both genes to chitin oligomers (monomer to heptamer) and chitosan oligomers (tetramer, heptamer) [10]: strongest response; time for which expression continued to increase after chitin heptamer treatment ([10]; both genes): up to 90 minutes; mRNA amount of CIGR1 and CIGR2 genes after treatment with chitin heptamer ([10]; five minutes after treatment, both genes): Significant increases of mRNA amount; elicitor activity in rice depending on oligomer size [11]: strongest effects
C=C1C[C@]23C[C@H]1CC[C@H]2[C@@]12CC[C@H](O)[C@@](C)(C(=O)O1)[C@H]2[C@@H]3C(=O)O [GA4] | induced the expression of both genes | active type | – | – | –
C=C1C[C@]23C[C@H]1CC[C@H]2[C@]1(C(=O)O)CC[C@H](O)[C@@](C)(C(=O)O)[C@H]1[C@@H]3C(=O)O [GA13] | only active type gibberellins induced the expression | inactive type | – | – | –
O=C(O)c1cc(N(Cc2ccccc2O)Cc2cc(O)ccc2O)ccc1O [Lavendustin A] | – | – | almost completely | hardly inhibited | –
C=C1[C@@H](O)[C@@H]2O[C@]3(CC[C@H](/C=C/[C@@H](C)[C@@H]4CC(C)=C[C@@]5(O[C@H](C[C@@](C)(O)C(=O)O)CC[C@H]5O)O4)O3)CC[C@H]2O[C@@H]1[C@@H](O)C[C@H](C)[C@H]1O[C@@]2(CCCCO2)CC[C@H]1C [okadaic acid] | – | – | inhibited almost completely | hardly inhibited | inhibition of gibberellin induction of α-amylase [9]: specifically inhibited
